Results on five compounds are retold here after patent US20030100565A1, “Method for the treatment or prevention of atopic dermatitis” (Boehringer Ingelheim International GmbH, priority 2001, published 2003).

Assay [1] concerns SP-induced scratching. The experiment in a line: Effect on SP-induced scratching in mice. Format: in vivo, ddY mice. Particulars: for scratching behavior count induced by SP: 1 h before intradermal SP, FIG. 1, control 50.5±12.1, mean±S.E.; for scratching behaviour count induced by SP: another experiment; for effect on SP-induced scratching compared with Compounds Ia and Ib: mice, dose not stated. The protocol: Assay: Effect of NK1 Receptor Antagonist Ia, on SP-Induced Scratching in Mice Male ddY mice (Japan SLC, Ltd., Shizuoka, Japan) of 8-9 weeks of ages weighing 34-43 g, were used in the experiment. Mice were fasted 4 hours prior to the initiation of the experiment with free access to water. Epinastine and NK1 receptor antagonist of formulae Ia, Ib, Ic and Id (Compounds Ia to Id) were provided by Boehringer Ingelheim Pharma K.G. (Germany). SP (lot. No. 80K5 104) was supplied by Sigma Co., Ltd. (USA) and dissolved in physiological saline. Before recording of behavior, the mice (two animals per one cage) were put into an acryl cage for at least 5 hours for acclimation. […] Playing back of video served for counting scratching behavior. […] Data were analyzed by One-way ANOVA and post hoc Tukey test; p<0.05 value was considered. Data presented as the mean±S.E.

Assay [2] relates to SP-induced scratching. Kind of assay: Effect on SP-induced scratching in guinea pigs. In kind it is in vivo, Hartley guinea pigs. Particulars: for effect on SP-induced scratching compared with Compounds Ia and Id: dose not stated. The protocol: Assay: Effect of NK1 Receptor Antagonist Ia, on SP-Induced Scratching in Guinea Pigs
Male Hartley guinea pigs (Japan SLC, Ltd., Shizuoka, Japan) of 4-5 weeks old weighing 275-395 g were used in the experiment. The guinea pigs were fasted more than 12 hours prior to the initiation of the experiment with free access to water. 6-8 guinea pigs were used for each group.
Prior to the recording of behaviour, the guinea pigs (one animal per cage) were kept in a cage for observation for at least 1 hour for acclimation. Compound Ia was dosed at 1 hour prior to the administration of substance P. […] SP (150 μg/body) was injected intradermally in volume of 20 μL into the rostral back (around interscapular level). Immediately after the administration of SP, the behaviour of the guinea pigs were recorded using VHS video camera for 1 hour with any persons kept out the observation room (sound proof condition). Playing back of video was served for counting the number of scratching behaviour.
The total scratching counts during 60 min of observation were analysed by one-way ANOVA and Dunnett's multiple comparison test between vehicle treatment and drug treatments; p<0.05 value was considered as significant. Scratching counts were expressed as the mean+S.E.

Assay [3] has as its system SP-induced scratching. Particulars: mice; reported by Inagaki et al., Eur J Pharmacol 2000; cited from earlier work.

`CN(CCc1cc(C(F)(F)F)cc(C(F)(F)F)c1)C(=O)[C@H](c1ccccc1)N1CCN(CC2CC2)CC1` [Compound Ia]: the “scratching behavior count induced by SP” value in the assay with SP-induced scratching [1] (30 mg/kg p.o.) worked out at 21.1±6.1 beats/60 min. Further, the “scratching behaviour count induced by SP” value in the assay with SP-induced scratching [1] (30 mg/kg p.o., FIG. 2a, control 59.0±6.0/60 min) was determined as 29.9±6.6 beats/60 min. Also, in the assay on SP-induced scratching [1] (10 and 30 mg/kg p.o., FIG. 3, vehicle 51.0±12.9 beats/60 min), the “dose dependency of effect on SP-induced scratching behavior” value was “inhibited the scratching induced by SP, and the effect was dose dependent”. In the assay on SP-induced scratching [1] (ddY mice, effect similar to epinastine), the “overall effect on scratching behaviour (conclusion)” value is listed as “apparent inhibitory effect”. The “inhibition of scratching behaviour induced by SP” value in the assay with SP-induced scratching [2] (guinea pigs, higher doses of 0.1 mg/kg p.o., FIG. 5.1) is “significant inhibition”; in the assay with SP-induced scratching [2] (guinea pigs, lower doses of 0.03 mg/kg p.o., FIG. 5.2) it was “tendency to inhibit”. Moreover, the “inhibition of scratching behaviour induced by SP, dose dependency” value in the assay with SP-induced scratching [2] (guinea pigs, p.o., 1 h before SP, FIG. 5) was “inhibited the scratching behaviour induced by SP dose dependently”.
In the case of `CN(CCc1cc(C(F)(F)F)cc(C(F)(F)F)c1)C(=O)[C@H](c1ccccc1)N1CCC(NC(CO)CO)CC1` [Compound Id, (S)-N-[2-(3,5-Bis-trifluormethyl-phenyl)-ethyl]-2-[4-(2-hydroxy-1-hydroxymethyl-ethylamino)-piperidin-1-yl]-N-methyl-2-phenylacetamid], the “effect on SP-induced scratching compared with Compounds Ia and Ib” value in the assay on SP-induced scratching [1] is “Comparable results”. In the assay on SP-induced scratching [2] (guinea pigs, 0.3, 1.0 and 3.0 mg/kg p.o., FIG. 6), the “inhibition of scratching behaviour induced by substance P” value was “inhibited”.
On to `CN(CCc1cc(C(F)(F)F)cc(C(F)(F)F)c1)C(=O)[C@H](c1ccccc1)N1CCC(N(C)CCCO)CC1` [Ic, (S)-N-[2-(3,5-Bis-trifluormethyl-phenyl)-ethyl]-2-{4-[(3-hydroxy-propyl)-methyl-amino]-piperidin-1-yl}-N-methyl-2-phenyl-acetamide], for which the “effect on SP-induced scratching compared with Compounds Ia and Ib” value in the assay on SP-induced scratching [1] is recorded as “Comparable results”. Besides, in the assay on SP-induced scratching [2] (guinea pigs), the “effect on SP-induced scratching compared with Compounds Ia and Id” value is reported as “Comparable results”.
As for `NC1=NCC2c3ccccc3Cc3ccccc3N12` (stereo not shown) [epinastine, reference compound], in the assay with SP-induced scratching [3], the “effect on SP-induced scratching” value is given as “significant effect”. Moreover, the “scratching behavior count induced by SP” value in the assay on SP-induced scratching [1] (10 mg/kg p.o.) turned out to be 20.0±8.4 beats/60 min. Besides, the “scratching behaviour count induced by SP” value in the assay with SP-induced scratching [1] (10 mg/kg p.o., FIG. 2b, control 51.6±7.8/60 min) amounted to 33.7±4.0 beats/60 min.
“(S)-N-[2-(3,5-Bis-trifluormethyl-phenyl)-ethyl]-2-{4-[cyclopropylmethyl-(3-hydroxy-propyl) -amino]-piperidin-1-yl}-N-methyl-2-phenyl-acetamid [Compound Ib]”: in the assay on SP-induced scratching [1] (30 mg/kg p.o., FIG. 4), the “inhibition of scratching behaviour induced by substance P” value is reported as “inhibited”. In addition, the “effect on SP-induced scratching compared with Compounds Ia and Id” value in the assay on SP-induced scratching [2] (guinea pigs) is “Comparable results”.
